In the assay the target is T1, Tyrosine-protein phosphatase non-receptor type 11 (Homo sapiens, UniProt Q06124).
T1 sequence (Q06124 whole entry): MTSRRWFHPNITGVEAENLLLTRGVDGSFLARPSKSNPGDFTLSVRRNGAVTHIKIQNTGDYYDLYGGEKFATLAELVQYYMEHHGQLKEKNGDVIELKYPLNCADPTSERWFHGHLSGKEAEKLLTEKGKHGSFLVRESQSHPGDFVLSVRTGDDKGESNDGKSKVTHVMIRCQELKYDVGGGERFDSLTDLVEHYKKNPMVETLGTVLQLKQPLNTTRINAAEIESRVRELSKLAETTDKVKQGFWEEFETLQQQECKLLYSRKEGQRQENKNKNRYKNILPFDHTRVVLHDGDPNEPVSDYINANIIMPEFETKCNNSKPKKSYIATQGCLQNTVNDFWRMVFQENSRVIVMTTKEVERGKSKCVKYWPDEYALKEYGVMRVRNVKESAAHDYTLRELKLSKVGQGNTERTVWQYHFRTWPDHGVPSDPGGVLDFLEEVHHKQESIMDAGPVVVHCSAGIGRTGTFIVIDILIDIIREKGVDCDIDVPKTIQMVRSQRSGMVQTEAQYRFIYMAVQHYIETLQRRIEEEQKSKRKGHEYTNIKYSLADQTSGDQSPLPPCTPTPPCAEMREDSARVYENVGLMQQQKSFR
In words: SHP2 Biochemical Assay. How it is done: SHP2 activity was monitored by measuring the conversion of the surrogate substrate 6,8-difluoromethylumbelliferyl phosphate (DiFMUP) to the fluorescent product, 6,8-difluoromethylumbelliferone (DiFMU).SHP2 was pre-incubated with test compounds and the activating peptide pIRS1 (H2N-LN(pY)IDLDLV-(PEG)8-LST(pY)ASINFQK-amide) for 30 min, prior to addition of the 6,8-difluoromethylumbelliferyl phosphate (DiFMUP), (Thermo Fisher D6567). Final assay concentrations were 10 pM SHP2, […] pIRS1 peptide, 50 μM DiFMUP, 25 mM Bis-Tris propane, pH 7.0, 150 mM NaCl, 0.05% (v/v) Tween-20, 0.5 mM TCEP and 5% (v/v) DMSO. Rates of reaction were then measured over 30 min by monitoring fluorescence on a BMG Pherastar reader at excitation 360 nm/emission 450 nm. IC50 values were calculated in singlicate from the normalized dose-response plots using four parameter logistic curve fit. The Experiment for each compound was carried out in one time or multiple times, and the IC50 values were shown as a single value (for a compound measured in a single experiment) or an average value (for a compound measured in multiple experiments).

As usually defined, the IC50 is the concentration that gives 50% inhibition. Low readings indicate greater potency, high ones weaker potency. With `Cn1c(N2[C@H]3CC[C@@H]2[C@H](N)C3)nc2[nH]cc(-c3ccc4ncsc4c3Cl)c2c1=O` [US12037345, Example 101], the IC50 was 1.5 nM.
